Measurements reported in patent publication US6610248B1, “Disinfectants” (Lonza AG, priority 1999, dated 2003).

Experiments:
[1] = Determination of foaming (shaken mixing cylinder, foam volume read off); format: physicochemical; settings: 250 ppm in demineralized water, 20° C.
Description: A 250 ml mixing cylinder was filled with 100 ml of solution. After any foam formed in the course of this had disappeared, the sealed cylinder was shaken vigorously vertically for 15 s (approximately 15×) and then placed on a flat support. The volume of the resultant foam was read off at regular time intervals.

[2] = tested on: Enterococcus hirae ATCC 8043; experiment: Quantitative suspension test EN 1276; format: cell-based; settings: contact time 5 min, water hardness 300 mg/kg CaCO3, 20° C.
Description: (§1) As specified by standard EN 1276, the efficacy of N,N-bis (3-aminopropyl)octylamine (according to the invention) and N,N-bis (3-aminopropyl)dodecylamine (comparison) was determined in the presence of albumin for various test microorganisms. [table]

[3] = tested on: Escherichia coli ATCC 10536; experiment: Quantitative suspension test EN 1276; format: cell-based; settings: contact time 5 min, water hardness 300 mg/kg CaCO3, 20° C.
Description: as §1

[4] = tested on: Pseudomonas aeruginosa ATCC 15442; experiment: Quantitative suspension test EN 1276; format: cell-based; settings: contact time 5 min, water hardness 300 mg/kg CaCO3, 20° C.
Description: as §1

[5] = tested on: Staphylococcus aureus ATCC 6538; experiment: Quantitative suspension test EN 1276; format: cell-based; settings: contact time 5 min, water hardness 300 mg/kg CaCO3, 20° C.
Description: as §1

[6] = tested on: Mycobacterium terrae ATCC 15755; experiment: Quantitative suspension test using Mycobacterium terrae (Hygiene & Medizin 1997 method); format: cell-based; settings: 0.3% active compound, 20° C., contact time 15 min
Description: Using the method described in Hygiene & Medizin 1997, 22, pp. 278-283, the activity of N,N-bis(3-amino-propyl)octylamine against Mycobacterium terrae ATCC 15755 was determined under differing organic loads. The concentration of active compound was in each case 0.3%, the temperature 20° C. and the contact time 15 min. The common logarithmic reduction in bacterial count was determined each time.

foam volume after 10 s [1] [mL] | foam volume after 60 s [1] | foam volume after a further 10 s ([1]; relative to volume at 10 s) | Compound | concentration for log. reduction >5 ([2]; 0.03% albumin) [%] | concentration for log. reduction >5 ([2]; 0.3% albumin) [%] | concentration for log. reduction >5 ([3]; 0.03% albumin) [%] | concentration for log. reduction >5 ([3]; 0.3% albumin) [%] | concentration for log. reduction >5 ([4]; 0.03% albumin) [%] | concentration for log. reduction >5 ([4]; 0.3% albumin) [%] | concentration for log. reduction >5 ([5]; 0.03% albumin) [%] | concentration for log. reduction >5 ([5]; 0.3% albumin) [%] | Log reduction in bacterial count ([6]; load: 0.3% albumin) | Log reduction in bacterial count ([6]; load: 0.5% sheep's blood) | Log reduction in bacterial count ([6]; load: none)
140 | 120 mL | – | CCCCCCCCCCCCN(CCCN)CCCN [N,N-bis(3-aminopropyl)dodecylamine, reference compound] | 0.05 | 0.05 | 0.025 | 0.025 | 0.025 | 0.50 | 0.05 | 0.10 | – | – | –
20 | virtually completely disappeared | decreased to half | CCCCCCCCN(CCCN)CCCN [N,N-bis(3-aminopropyl)octylamine] | 0.10 | 0.05 | 0.05 | 0.05 | 0.05 | 0.10 | 0.10 | 0.10 | 4.09 | 4.48 | 4.33
